Legend:
FALS mice (G93A) = assay: Treatment of G93A FALS mice with uPA inhibitor WX-C340 (survival analysis, disease progression); type: in vivo; details: 10 mg WX-C340 i.p. daily
Protocol: Kaplan-Meyer-Analysis, G93A-ALS-model: Comparison of the survival of control group animals (N=42) with animals treated with 10 mg/kg WX-C340 i.p. Daily (treatment start day 30, n=18).
FALS mice (G93A) begin to show behavioral symptoms at about 90 days of age while G85R mice develop symptoms at about 8 months of age. The initial symptoms is a high frequency resting tremor. This progresses to gait abnormalities and uncoordinated movements. Later the mice begin to show paralysis of the hind limbs, eventually progressing to paralysis of the forelimbs and finally to complete paralysis. Animals were sacrificed when they were unable to roll over within 10 seconds of being pushed on their side. This time point is taken as the time of death.

ALS = ALS treatment with riluzole; cited from earlier work

Cl.N=C(N)Nc1ccc(CNC(=O)CNC(=O)[C@@H](CO)NS(=O)(=O)Cc2ccc(Cl)cc2)cc1 [WX-C340, 4-chlorobenzyl-sulfonyl-(D)-Ser-Gly-(4-guanidinobenzyl)amide hydrochloride]
progression of disease (onset of paralysis of the front legs) (FALS mice (G93A)): delays the progression of disease | survival of the animals (Kaplan-Meyer analysis, FIG. 4) (FALS mice (G93A); treatment start day 30, versus control group): significantly improves the survival

Nc1nc2ccc(OC(F)(F)F)cc2s1 [riluzole]
prolongation of life (ALS): ca. 3 months
